In paper PMC11420954, “Structural and Functional Basis of GenB2 Isomerase Activity from Gentamicin Biosynthesis” (ACS Chemical Biology, 2024):
Each block holds one compound with its values, some of them ahead of it.

Columns and labels:
[1] = molecular target: GenB2 (Micromonospora echinospora); test: crystal structure; holo GenB2 (PMP) and its complexes with G418 or gentamicin X2; space group C222(1), a single protomer in the asymmetric unit, dimer obtained by a symmetry operation; 0.1 M PIPES pH 6.0, 1 M NaCl, 29% PEG 4000, 30% 6-aminohexanoic acid, 18 °C
[2] = molecular target: GenB2 (Micromonospora echinospora); test: not stated; GenB2 in solution; the method is not told
GenB2 [3] = molecular target: T1, GenB2 (Micromonospora echinospora, UniProt Q70KE6); test: epimerisation to gentamicin C2a, HPLC; format: biochemical; details: 200 μM substrate, 20 μM enzyme, 50 mM Tris-HCl pH 8.0, 30 °C, overnight
T1 construct: gene gacE; full length in pET28a, E. coli BL21(DE3), nickel IMAC and gel filtration; plasmid carries an extra 57 nucleotides at the 5' end; homodimer
T1 sequence (Q70KE6 entry or part of it): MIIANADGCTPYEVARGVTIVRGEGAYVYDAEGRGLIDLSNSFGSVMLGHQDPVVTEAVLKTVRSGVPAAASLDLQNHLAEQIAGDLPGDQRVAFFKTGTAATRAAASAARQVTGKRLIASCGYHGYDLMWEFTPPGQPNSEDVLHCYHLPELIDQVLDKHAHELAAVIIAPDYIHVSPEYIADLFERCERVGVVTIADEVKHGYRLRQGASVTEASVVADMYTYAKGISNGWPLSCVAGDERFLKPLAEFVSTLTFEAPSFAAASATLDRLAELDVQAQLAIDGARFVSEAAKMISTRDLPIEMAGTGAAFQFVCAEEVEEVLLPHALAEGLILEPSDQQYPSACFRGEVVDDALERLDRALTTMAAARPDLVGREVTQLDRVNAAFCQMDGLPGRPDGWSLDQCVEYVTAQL

GenB2 [4] = molecular target: T1, GenB2; test: X-ray crystal structure of the complex; details: ternary complex with PMP; substrate-binding site; at least 100 mM ligand, pH 6.0, 18 °C
GenB2 [5] = molecular target: T1, GenB2; test: X-ray crystal structure of the holo enzyme; format: binding; details: copurified; coenzyme site at the dimer interface, no Schiff base with Lys227; pH 6.0
GenB2 [6] = molecular target: T1, GenB2; test: epimerisation to gentamicin C2, HPLC; format: biochemical; details: 200 μM substrate, 20 μM enzyme, 50 mM Tris-HCl pH 8.0, 30 °C, overnight

stoichiometry N [1]: 2
stoichiometry N [2]: 2
Compound: GenB2 (enzyme)

Compound: CN[C@@H]1[C@@H](O)[C@@H](O[C@@H]2[C@@H](O)[C@H](O[C@H]3O[C@H]([C@@H](C)N)CC[C@H]3N)[C@@H](N)C[C@H]2N)OC[C@]1(C)O [gentamicin C2]
epimerisation to gentamicin C2a, HPLC (GenB2 [3]): conversion of gentamicin C2 into C2a or C2a into C2

Compound: CN[C@@H]1[C@@H](O)[C@@H](O[C@@H]2[C@@H](O)[C@H](O[C@H]3O[C@H](CO)[C@@H](O)[C@H](O)[C@H]3N)[C@@H](N)C[C@H]2N)OC[C@]1(C)O (stereo in doubt) [gentamicin X2]
X-ray crystal structure of the complex (GenB2 [4]): we have obtained the structure of GenB2 in complex with gentamicin G418 and gentamicin X2

Compound: Cc1ncc(COP(=O)(O)O)c(CN)c1O [pyridoxamine 5-phosphate]
X-ray crystal structure of the holo enzyme (GenB2 [5]): Each dimer of GenB2 has two PMP molecules bound at the interfaces between the protomers

Compound: CN[C@@H]1[C@@H](O)[C@@H](O[C@@H]2[C@@H](O)[C@H](O[C@H]3O[C@H]([C@H](C)N)CC[C@H]3N)[C@@H](N)C[C@H]2N)OC[C@]1(C)O [gentamicin C2a]
epimerisation to gentamicin C2, HPLC (GenB2 [6]): wild-type GenB2 was able to perform a high ratio of conversion
